This note sets out measurements from patent US9145351B2, “Azole derivatives, methods for producing the same, intermediate thereof, agro-horticultural agents” (KUREHA CORPORATION, priority 2009, dated 2015).

For one test, the system named is Septoria tritici. Put plainly: Assay for fungicidal effect on Septoria tritici, plate medium 0.02 mg/L (Experimental Example 7). The test is classed as cell-based. The settings on record: Zymoseptoria tritici, read-out: grade (growth inhibition grade). From the text: In this Experimental Example, the fungicidal effects of the inventive compounds on a phytopathogenic fungi, Septoria tritici were examined and compared to the Comparative Compound (3) described in Patent Literature 1 (JPA01-93574) by the methods described below. […] The subject microorganism previously cultured on a plate medium was cut out using a cork borer whose diameter was 4 mm, and inoculated to the test compound-containing plate medium described above. […] The growth degree of the microorganism on the test compound-containing plate medium thus observed was compared with the growth degree of the microorganism in the untreated group, and % mycelial growth inhibition was calculated by the following equation. R=100(dc−dt)/dc wherein R=% mycelial extension inhibition, dc=flora diameter in untreated plate, dt=flora diameter in treated plate. The results obtained as described above were evaluated as one of the 5 grades according to the following criteria. <Growth Inhibition Grade> […]

For the next test, the system named is Puccinia recondita. Description: Efficacy test against wheat brown rust, 2 mg/L (Experimental Example 8). Format: in vivo. Set-up: key: 0: No onset; 0.5: Less than 1%; 1% or higher and less than 5%; 2: 5% or higher and less than 10%; 10% or higher and less than 30%; 4: 30% or higher and less than 50%; 50% or higher. Conditions: sprayed at 1,000 L/ha, concentration printed 0.02 mg/L, 9 to 14 days after inoculation. The protocol: Onto a wheat plant (variety: […] The sprayed leaves were air-dried, and inoculated with spore suspension of Puccinia recondita (adjusted at 200 spores/vision, […] was added at 60 ppm) by spraying, and kept at 25 degrees C. and a high humidity for 48 hours. Thereafter, the plant was kept in a greenhouse. Nine to 14 days after inoculation, the wheat brown rust lesion degree was investigated, and the protective value was calculated by the following equation. Protective value (%)=(1-lesion degree in sprayed plot/lesion degree in unsprayed plot)×100

In the case of `C[C@]1(CCl)CC[C@@H](Cc2ccc(F)cc2)[C@]1(O)Cn1cncn1` (racemic) [Compound I-77, (1RS,2SR,5SR)-2-chloromethyl-5-(4-fluorobenzyl)-2-methyl-1-(1H-1,2,4-triazol-1-ylmethyl)cyclopentanol], the inhibition (in general, how much of the control response was suppressed) at 0.02 µg/mL in the test with Septoria tritici is above 80%. In the test on Puccinia recondita, the “degree (wheat brown rust lesion degree)” value was found to be 0.

In the case of `C[C@]1(CCl)CC[C@@H](Cc2ccccc2)[C@]1(O)Cn1cncn1` (racemic) [Compound I-73, (1RS,2SR,5SR)-2-chloromethyl-5-benzyl-2-methyl-1-(1H-1,2,4-triazol-1-ylmethyl)cyclopentanol], in the test with Septoria tritici, the inhibition at 0.02 µg/mL was above 80%.
